# Source: PMC9582434, “Ryanodine receptor-active non-dioxin-like polychlorinated biphenyls cause neurobehavioral deficits in larval zebrafish” (Frontiers in Toxicology, 2022)
# Tested on: larval zebrafish
# Test: Teratological and mortality assessment, static exposure 6 hpf to 5 dpf
# Type: in vivo
# Conditions: 30 µM; by 3 dpf; data not shown
# Description: At 4 hpf, embryos were treated with 50 µl of 41 mg/ml protease from Streptomyces griseus (P5147, Sigma-Aldrich, St. Louis, MO, United States) in 25 ml of FW for a maximum of 6 min to remove the chorion ([Truong et al., 2011]). At 5 hpf, embryos were placed in individual wells of 96-well plates filled with 100 µl of EM. At 6 hpf, embryos were exposed to a 2× concentration of the selected PCB congeners or controls that were diluted in 100 μl EM to produce a 1× concentration in a total of 200 µl solution. […] After exposure, plates were covered with Parafilm M (Bemis NA, Neenah, WI, United States) to reduce evaporation and placed in an incubator at 28.5°C with 14 h light (∼300 lux)/10 h dark cycles. Final DMSO concentrations were 0.2% (vol/vol) for all exposures. Fish were statically exposed until 5 dpf.
# Exposed fish were examined daily for any gross morphological malformations and mortality using an Olympus Stereo Microscope Model SZ61 (Olympus, Japan) up to ×4.5 magnification. […] Teratological endpoints that were evaluated include yolk sac edema, pericardial edema, somite formation, deformities of the body axis, notochord, craniofacial structures, or caudal fin. Malformations were scored in a binary manner of either present or not present. Fish that were scored as neither malformed nor dead were deemed viable. […]
smiles,measurement,value
"Clc1ccc(Cl)c(-c2c(Cl)ccc(Cl)c2Cl)c1 [PCB 95, 2,2',3,5',6-pentachlorobiphenyl]",loss of viability,~100%
